Reference: patent US9744188B2, “Methods of promoting neuronal outgrowth by gypican 2 that binds to receptor protein tyrosine phosphatase sigma” (PRESIDENT AND FELLOWS OF HARVARD COLLEGE, priority 2011, dated 2017)

Target: T1, DLAR Ig1-FN3 (Drosophila melanogaster, UniProt P16621)
T1 construct: hexahistidine (C); made in house; host or cells: HEK-293T cells with kifunensine or GnTI- HEK293S cells
T1 sequence (P16621 33-606): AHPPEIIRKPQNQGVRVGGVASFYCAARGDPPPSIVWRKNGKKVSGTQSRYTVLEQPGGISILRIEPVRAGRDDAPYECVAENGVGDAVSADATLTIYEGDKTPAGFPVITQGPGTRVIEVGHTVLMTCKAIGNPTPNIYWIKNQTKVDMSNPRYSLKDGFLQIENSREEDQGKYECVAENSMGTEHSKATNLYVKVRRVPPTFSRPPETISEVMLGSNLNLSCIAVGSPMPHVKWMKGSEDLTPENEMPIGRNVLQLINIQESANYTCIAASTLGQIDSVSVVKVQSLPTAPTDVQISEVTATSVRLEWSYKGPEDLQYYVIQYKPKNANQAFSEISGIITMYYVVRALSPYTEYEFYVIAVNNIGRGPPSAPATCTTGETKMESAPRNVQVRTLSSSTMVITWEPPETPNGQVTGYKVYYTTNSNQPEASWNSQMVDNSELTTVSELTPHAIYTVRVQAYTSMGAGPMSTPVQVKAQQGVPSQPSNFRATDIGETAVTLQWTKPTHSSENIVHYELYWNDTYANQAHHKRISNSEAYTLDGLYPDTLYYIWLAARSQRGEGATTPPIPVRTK
Test: SEC-MALS, heparin-induced oligomerisation of DLAR
Type: biochemical
Description: MALS experiments were carried out on a […] System (Wyatt Technologies). All proteins were purified as described above, and samples were incubated alone or with an oligosaccharide ligand for an hour at room temperature prior to use in MALS analysis. For size defined heparin fragments (Iduron dp4-dp30; product codes HO04-HO30) a five-fold molar excess of oligosaccharide to protein was used, except for the series of experiments presented in FIG. 13, where a range of RPTPσ constructs were tested with a separate batch of dp10 at a two-fold molar excess (FIG. 37, highlighted in blue). Equivalent amounts (equal mg/ml concentrations) of HS (Iduron, GAG-HS01) and CS (Sigma, C4384) were used for MALS experiments as had been for heparin dp10 (in giving a five-fold molar excess). […] All Ig1-FN3 proteins were injected at approximately 10 μM. Size exclusion chromatography was performed in 10 mM Tris, 50 mM NaCl, pH 7.5 on a Superdex75 or Superdex200 HR10/30 column (GE Healthcare), attached to an Agilent chromatography system. An Optilab rEX Refractive Index detector and a Dawn Helios II Multi-Angle Light Scattering (MALS) detector recorded the refractive index and light scattering of the samples upon elution from the size exclusion column. The Wyatt software ASTRA was used to analyse all the data collected.

Heparin
oligomerisation of DLAR Ig1-FN3: promotes the oligomerisation
